The values that follow come from patent US9296734B2 (AMGEN INC., priority 2013, dated 2016).

The test system of assay [1] is Aβ40 in conditioned medium of cells stably expressing Amyloid Precursor Protein (APP). The assay can be described thus: In vitro BACE cell-based assay (Aβ40 sandwich ELISA). The settings on record: Homo sapiens. The gist of the method: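 Secreted Aβ40 was quantified by sandwich ELISA (pAb40 capture, biotinylated 6E10 detection, Europium time-resolved fluorescence). IC50 derived from percent inhibition versus concentration.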
Background: ELISA stands for enzyme-linked immunosorbent assay.

The target of assay [2] is Beta Secretase enzyme (BACE) (Homo sapiens (Human), UniProt P56817). The assay can be described thus: In vitro enzymatic BACE FRET assay. The class given is biochemical. The settings on record: read-out: BACE 1 FRET assay IC50. On the procedure: In Vitro Enzymatic BACE FRET (Fluorescence Resonance Energy Transfer) Assay (Enzyme Assay Data in the Example Table I)
The assay buffer used in this screen is 0.05 M acetate, pH 4.2, 10% DMSO final, 100 uM genapol (which is a nonionic detergent, below its Critical Micelle Concentration). […] This assay is effectively started by the addition of FRET substrate (50 nM) and the combination is incubated for one hour. The FRET assay is terminated with by addition of Tris buffer, which raises the pH to neutrality, and the fluorescence is determined. The FRET substrate is a peptide with commercially available fluorophore and quencher, on opposite sides of the BACE cleavage site.

The next assay has as its target Cathepsin D (Cat D) (Homo sapiens (Human), UniProt P07339). The assay can be described thus: In vitro enzymatic Cathepsin D (Cat D) FRET assay. To be noted: read-out: CatD IC50. The class given is biochemical. In a few lines:
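CHO-expressed recombinant Cat D cleaves a fluorophore/quencher FRET peptide (20 nM) in 0.05 M citrate pH 3.5, 5 mM CHAPS, 10% DMSO final, over 1 h. Tris addition neutralizes pH to stop the reaction; fluorescence read at excitation 500 nm, emission 580 nm.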

Setting [3] is: HEK293, average IC50, HEK cell assay, read-out: HEK cell assay IC50.
Where [4] appears, read: average IC50, BACE enzyme assay.
The mark [5] stands for this setting: average IC50, cathepsin D enzyme assay.
The mark [6] stands for this setting: HEK293, average IC50, HEK cells, read-out: HEK cell assay IC50.
Where [7] appears, read: HEK293, read-out: HEK cell assay IC50.

Read-outs that look alike come from different tables or passages of the source.

Sequence of Beta Secretase enzyme (BACE) (P56817 46-501): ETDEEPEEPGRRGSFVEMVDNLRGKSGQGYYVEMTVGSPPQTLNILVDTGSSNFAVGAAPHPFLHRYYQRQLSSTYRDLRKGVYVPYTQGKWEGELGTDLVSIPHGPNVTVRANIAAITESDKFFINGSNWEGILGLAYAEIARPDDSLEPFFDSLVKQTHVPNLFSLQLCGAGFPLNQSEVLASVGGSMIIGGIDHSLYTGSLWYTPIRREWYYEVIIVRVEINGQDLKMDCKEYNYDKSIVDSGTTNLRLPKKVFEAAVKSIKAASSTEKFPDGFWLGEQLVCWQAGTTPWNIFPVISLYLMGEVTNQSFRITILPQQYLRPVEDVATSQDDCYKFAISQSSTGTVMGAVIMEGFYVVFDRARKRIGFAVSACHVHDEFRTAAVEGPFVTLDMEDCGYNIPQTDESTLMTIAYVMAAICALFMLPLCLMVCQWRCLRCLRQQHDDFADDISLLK
Sequence of Cathepsin D (Cat D) (P07339 65-412, species assumed): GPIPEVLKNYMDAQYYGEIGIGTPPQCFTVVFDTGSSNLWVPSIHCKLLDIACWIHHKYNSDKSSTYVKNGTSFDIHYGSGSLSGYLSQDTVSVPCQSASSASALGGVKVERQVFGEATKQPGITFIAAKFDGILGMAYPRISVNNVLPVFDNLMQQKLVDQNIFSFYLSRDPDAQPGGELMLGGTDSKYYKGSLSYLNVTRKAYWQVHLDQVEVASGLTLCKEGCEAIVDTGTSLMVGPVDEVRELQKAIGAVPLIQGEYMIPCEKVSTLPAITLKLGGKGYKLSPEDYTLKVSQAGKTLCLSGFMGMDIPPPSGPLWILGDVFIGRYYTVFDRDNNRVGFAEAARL

Consider `CC(C)n1cc(Cl)c(C(=O)Nc2cnc(F)c([C@]3(C)C[C@@H](C(F)(F)F)OC(N)=N3)c2)n1` [Example 71, N-(5-((4S,6S)-2-amino-4-methyl-6-(trifluoromethyl)-5,6-dihydro-4H-1,3-oxazin-4-yl)-6-fluoropyridin-3-yl)-4-chloro-1-isopropyl-1H-pyrazole-3-carboxamide], for which the 50% inhibitory concentration (IC50) (usually the midpoint of a concentration-inhibition curve) in assay [1] (setting [3]) is 5.14 µM; in assay [2] (setting [4]), 38.9 µM; at Cathepsin D (Cat D) (setting [5]), more than 400 µM.

As to `C[C@@]1(c2cc(NC(=O)c3nn(C(F)F)cc3Cl)cnc2F)C[C@@H](C(F)(F)F)OC(N)=N1` [Example 72, N-(5-((4S,6S)-2-amino-4-methyl-6-(trifluoromethyl)-5,6-dihydro-4H-1,3-oxazin-4-yl)-6-fluoropyridin-3-yl)-4-chloro-1-(difluoromethyl)-1H-pyrazole-3-carboxamide], the half-maximal inhibitory concentration (IC50) stood at 0.031 µM in assay [1] (setting [3]), 0.024 µM in assay [2] (setting [4]) and 844 µM on Cathepsin D (Cat D) (setting [5]).

In the case of `C[C@@]1(c2cc(Nc3ncnc4cc(Cl)cnc34)cnc2F)C[C@@H](C(F)(F)F)OC(N)=N1` [Example 74, (4S,6S)-4-(5-((7-chloropyrido[3,2-d]pyrimidin-4-yl)amino)-2-fluoropyridin-3-yl)-4-methyl-6-(trifluoromethyl)-5,6-dihydro-4H-1,3-oxazin-2-amine], the values for the IC50 (in assay [1] (setting [6]); in assay [2] (average IC50); on Cathepsin D (Cat D) (average IC50)) were 0.0376 µM, 0.088 µM and more than 400 µM, respectively.

Regarding `C[C@@]1(c2cc(Nc3ncnc4cc(C#N)cnc34)cnc2F)C[C@@H](C(F)(F)F)OC(N)=N1` [Example 75, 4-((5-((4S,6S)-2-amino-4-methyl-6-(trifluoromethyl)-5,6-dihydro-4H-1,3-oxazin-4-yl)-6-fluoropyridin-3-yl)amino)pyrido[3,2-d]pyrimidine-7-carbonitrile], the 50% inhibitory concentration (IC50) in assay [1] (setting [6]) was 0.0912 µM; in assay [2] (average IC50) it was 0.368 µM; at Cathepsin D (Cat D) (average IC50), more than 400 µM.

Regarding `C[C@@]1(c2cc(Nc3nccc4cc(Cl)cnc34)cnc2F)C[C@@H](C(F)(F)F)OC(N)=N1` [Example 76, (4S,6S)-4-(5-((3-chloro-1,7-naphthyridin-8-yl)amino)-2-fluoropyridin-3-yl)-4-methyl-6-(trifluoromethyl)-5,6-dihydro-4H-1,3-oxazin-2-amine], the IC50 in assay [1] (setting [6]) is 0.042 µM; in assay [2] (average IC50), 0.0329 µM; at Cathepsin D (Cat D) (average IC50) it was more than 400 µM.

Turning to `C[C@@]1(c2cc(Nc3nccc4cc(C#N)cnc34)cnc2F)C[C@@H](C(F)(F)F)OC(N)=N1` [Example 77, 8-((5-((4S,6S)-2-amino-4-methyl-6-(trifluoromethyl)-5,6-dihydro-4H-1,3-oxazin-4-yl)-6-fluoropyridin-3-yl)amino)-1,7-naphthyridine-3-carbonitrile], the IC50 in assay [1] (setting [6]) was 0.0248 µM; in assay [2] (average IC50), 0.0956 µM; at Cathepsin D (Cat D) (average IC50), more than 400 µM.

Regarding `C[C@@]1(c2nc(NC(=O)c3ccc(Cl)cn3)ccc2F)C[C@@H](C(F)(F)F)OC(N)=N1` [Example 83, N-(6-((4S,6S)-2-amino-4-methyl-6-(trifluoromethyl)-5,6-dihydro-4H-1,3-oxazin-4-yl)-5-fluoropyridin-2-yl)-5-chloropicolinamide], the values for the concentration for half-maximal inhibition (IC50) (in assay [1] (setting [6]); in assay [2] (average IC50); on Cathepsin D (Cat D) (average IC50)) were 0.0389 µM, 0.103 µM and more than 400 µM, respectively.

`Cc1cc(OC(F)F)cnc1C(=O)Nc1ccc(F)c([C@]2(C)C[C@@H](C(F)(F)F)OC(N)=N2)n1` [Example 85, N-(6-((4S,6S)-2-amino-4-methyl-6-(trifluoromethyl)-5,6-dihydro-4H-1,3-oxazin-4-yl)-5-fluoropyridin-2-yl)-5-(difluoromethoxy)-3-methylpicolinamide]: the IC50 came out at 0.0295 µM in assay [1] (setting [6]), 0.103 µM in assay [2] (average IC50) and 492 µM on Cathepsin D (Cat D) (average IC50).

Turning to `C#CCOc1cnc(C(=O)Nc2ccc(F)c([C@]3(C)C[C@@H](C(F)(F)F)OC(N)=N3)n2)cn1` [Example 87, N-(6-((4S,6S)-2-amino-4-methyl-6-(trifluoromethyl)-5,6-dihydro-4H-1,3-oxazin-4-yl)-5-fluoropyridin-2-yl)-5-(prop-2-yn-1-yloxy)pyrazine-2-carboxamide], the IC50 was 0.0084 µM in assay [1] (setting [6]), 0.0254 µM in assay [2] (average IC50) and 609 µM on Cathepsin D (Cat D) (average IC50).

Consider `C[C@@]1(c2nc(NC(=O)c3nn(C(F)F)cc3Cl)ccc2F)C[C@@H](C(F)(F)F)OC(N)=N1` [Example 88, N-(6-((4S,6S)-2-amino-4-methyl-6-(trifluoromethyl)-5,6-dihydro-4H-1,3-oxazin-4-yl)-5-fluoropyridin-2-yl)-4-chloro-1-(difluoromethyl)-1H-pyrazole-3-carboxamide], for which the half-maximal inhibitory concentration (IC50) in assay [1] (setting [3]) was determined as 0.01 µM; in assay [2] (setting [4]) it was 0.032 µM; on Cathepsin D (Cat D) (setting [5]) it was 712 µM.

With `Cc1cc(Cl)cnc1C(=S)Nc1ccc(F)c([C@]2(CF)C[C@@H](C(F)(F)F)OC(N)=N2)c1` [Example 90, N-(3-((4S,6S)-2-amino-4-(fluoromethyl)-6-(trifluoromethyl)-5,6-dihydro-4H-1,3-oxazin-4-yl)-4-fluorophenyl)-5-chloro-3-methylpyridine-2-carbothioamide], the 50% inhibitory concentration (IC50) was 0.909 µM in assay [1] (setting [6]), 1.76 µM in assay [2] (average IC50) and more than 400 µM at Cathepsin D (Cat D) (average IC50).

As to `NC1=N[C@](CF)(c2cc(Oc3cnccn3)ccc2F)C[C@@H](C(F)(F)F)O1` [Example 92, (4S,6S)-4-(2-fluoro-5-(pyrazin-2-yloxy)phenyl)-4-(fluoromethyl)-6-(trifluoromethyl)-5,6-dihydro-4H-1,3-oxazin-2-amine], the half-inhibitory concentration (IC50) in assay [1] (setting [6]) was 1.65 µM; in assay [2] (average IC50), 1.64 µM; at Cathepsin D (Cat D) (average IC50), more than 400 µM.

With `NC1=N[C@](CF)(c2cc(Oc3ncc(Cl)cc3F)ccc2F)C[C@@H](C(F)(F)F)O1` [Example 95, (4S,6S)-4-(5-((5-chloro-3-fluoropyridin-2-yl)oxy)-2-fluorophenyl)-4-(fluoromethyl)-6-(trifluoromethyl)-5,6-dihydro-4H-1,3-oxazin-2-amine], the IC50 in assay [1] (setting [6]) is 2.59 µM; in assay [2] (average IC50), 2.89 µM; at Cathepsin D (Cat D) (average IC50) it was more than 400 µM.

In the case of `NC1=N[C@](CF)(c2cc(Oc3cc(Br)cc(Cl)n3)ccc2F)C[C@@H](C(F)(F)F)O1` [Example 98], the half-inhibitory concentration (IC50) was 2.9 µM in assay [1] (setting [6]), 1.95 µM in assay [2] (average IC50) and more than 400 µM on Cathepsin D (Cat D) (average IC50).

Turning to `NC1=N[C@](CF)(c2cc(Oc3cccc(Cl)n3)ccc2F)C[C@@H](C(F)(F)F)O1` [Example 100, (4S,6S)-4-(5-((6-chloropyridin-2-yl)oxy)-2-fluorophenyl)-4-(fluoromethyl)-6-(trifluoromethyl)-5,6-dihydro-4H-1,3-oxazin-2-amine], the IC50 came out at 3.26 µM in assay [1] (setting [3]), 1.57 µM in assay [2] (setting [4]) and 1930 µM at Cathepsin D (Cat D) (setting [5]).

Take `NC1=N[C@](CF)(c2cc(-c3nc4ccc(Cl)cc4o3)ccc2F)C[C@@H](C(F)(F)F)O1` [Example 105, (4S,6S)-4-(5-(6-chlorobenzo[d]oxazol-2-yl)-2-fluorophenyl)-4-(fluoromethyl)-6-(trifluoromethyl)-5,6-dihydro-4H-1,3-oxazin-2-amine]: the values for the half-inhibitory concentration (IC50) (in assay [1] (setting [7]); in assay [2] (setting [4]); at Cathepsin D (Cat D) (setting [5])) were 2.81 µM, 0.542 µM and more than 44.4 µM, respectively.

In the case of `N#Cc1cccnc1Oc1ccc(F)c([C@]2(CF)C[C@@H](C(F)(F)F)OC(N)=N2)c1` [Example 107, 2-(3-((4S,6S)-2-amino-4-(fluoromethyl)-6-(trifluoromethyl)-5,6-dihydro-4H-1,3-oxazin-4-yl)-4-fluorophenoxy)nicotinonitrile], the IC50 in assay [1] (setting [7]) amounted to 3.61 µM; in assay [2] (average IC50), 5.87 µM; at Cathepsin D (Cat D) (average IC50) it was 1400 µM.

Take `NC1=N[C@](CF)(c2cc(Oc3ncccn3)ccc2F)C[C@@H](C(F)(F)F)O1` [Example 108, (4S,6S)-4-(2-fluoro-5-(pyrimidin-2-yloxy)phenyl)-4-(fluoromethyl)-6-(trifluoromethyl)-5,6-dihydro-4H-1,3-oxazin-2-amine]: the half-maximal inhibitory concentration (IC50) in assay [1] (setting [6]) was more than 15.6 µM; in assay [2] (average IC50) it was 9.97 µM; at Cathepsin D (Cat D) (average IC50), more than 400 µM.

In the case of `NC1=N[C@](CF)(c2cc(Oc3nccc(C(F)(F)F)c3F)ccc2F)C[C@@H](C(F)(F)F)O1` [Example 109, (4S,6S)-4-(2-fluoro-5-((3-fluoro-4-(trifluoromethyl)pyridin-2-yl)oxy)phenyl)-4-(fluoromethyl)-6-(trifluoromethyl)-5,6-dihydro-4H-1,3-oxazin-2-amine], the IC50 in assay [1] (setting [7]) is 8.18 µM; in assay [2] (average IC50), 9.52 µM; on Cathepsin D (Cat D) (average IC50), more than 400 µM.

In the case of `NC1=N[C@](CF)(c2cc(Oc3cccc(C(F)(F)F)n3)ccc2F)C[C@@H](C(F)(F)F)O1` [Example 110, (4S,6S)-4-(2-fluoro-5-((6-(trifluoromethyl)pyridin-2-yl)oxy)phenyl)-4-(fluoromethyl)-6-(trifluoromethyl)-5,6-dihydro-4H-1,3-oxazin-2-amine], the concentration for half-maximal inhibition (IC50) in assay [1] (setting [6]) was determined as 4.56 µM; in assay [2] (average IC50), 3.41 µM; at Cathepsin D (Cat D) (average IC50), 1820 µM.
